According to US20190336490A1, “COMPOSITIONS AND METHODS FOR INCREASING REMYELINATION” (Frequency Therapeutics, Inc., priority 2018, published 2019):

Key:
muscarinic M1 receptor = target: T1, muscarinic M1 receptor (Homo sapiens, UniProt P11229); details: cited from earlier work
T1 sequence (P11229 1-460): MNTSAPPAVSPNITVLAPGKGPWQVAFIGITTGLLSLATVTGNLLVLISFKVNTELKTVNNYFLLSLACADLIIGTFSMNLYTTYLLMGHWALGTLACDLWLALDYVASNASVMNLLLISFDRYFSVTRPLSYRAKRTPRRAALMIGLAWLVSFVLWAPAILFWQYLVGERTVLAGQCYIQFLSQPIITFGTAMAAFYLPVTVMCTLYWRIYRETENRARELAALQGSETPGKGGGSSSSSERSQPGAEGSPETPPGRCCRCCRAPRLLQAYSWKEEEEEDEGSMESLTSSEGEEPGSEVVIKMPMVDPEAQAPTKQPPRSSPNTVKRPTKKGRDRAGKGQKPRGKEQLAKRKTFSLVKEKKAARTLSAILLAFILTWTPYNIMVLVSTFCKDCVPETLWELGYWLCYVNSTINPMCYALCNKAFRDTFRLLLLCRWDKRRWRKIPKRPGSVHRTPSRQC

[1] = tested on: OPC (oligodendrocyte precursor cell); assay: OPC Cell Activity; format: cell-based
[2] = tested on: Rat primary optic nerve oligodendrocyte progenitor cells (OPCs); assay: OPC differentiation assay (MBP staining); format: cell-based; details: 6 days

Compound	In vitro M1 (Conc) (muscarinic M1 receptor)	OPC Cell Activity ([1]; Table 1, in words)	further results
CCCCCCCCOc1ccccc1C(=O)Nc1ccc(C(=O)OCC[N+](C)(CC)CC)cc1 [Octylonium bromide]	2 nM	Active	–
CN1CCCN(C(c2ccccc2)c2ccc(Cl)cc2)CC1 (stereo not shown) [Homochlorcyclizine]	22 nM	–	–
CCN(CC)CC1CCCCN1CC(=O)N1c2ccccc2C(=O)Nc2cccnc21 (stereo not shown) [AF-DX 116]	417 nM	–	–
OC(CCN1CCCCC1)(c1ccccc1)C1CC2C=CC1C2 (stereo not shown) [Biperiden]	0.85 nM	–	–
C[N+]1(C)CCCC(OC(=O)C(O)(c2ccccc2)c2ccccc2)C1 (stereo not shown) [Mepenzolate]	27 nM	Active	–
CN1CCCC(n2nc(Cc3ccc(Cl)cc3)c3ccccc3c2=O)CC1 (stereo not shown) [Azelastine]	4,200 nM	–	–
CN(CCCN1c2ccccc2CCc2ccccc21)CC(=O)c1ccc(Cl)cc1 [Lofepramine]	67 nM	–	–
CCCC(CCC)C(=O)O[C@H]1C[C@H]2CC[C@@H](C1)[N+]2(C)C [Octatropine methylbromide]	–	Active	–
C[N+]1(C)CCC(OC(=O)C(O)(c2ccccc2)C2CCCC2)C1 (stereo not shown) [Glycopyrronium bromide]	0.42 nM	–	–
C[N+]1(C)[C@@H]2CC[C@H]1C[C@@H](OC(=O)C(CO)c1ccccc1)C2 (stereo partly shown) [Methylatropine]	–	Active	–
CC(CN(C)C)CN1c2ccccc2Sc2ccc(C#N)cc21 (stereo not shown) [Cyamemazine]	11 nM	–	–
CCN(CC)CCOCCOC(=O)C1(c2ccccc2)CCCC1 [Pentoxyverine, carbetapentane, Pentoxyverine]	13 to 76 nM	–	OPC Cell Activity ([1]; Table 1): 260 nM
c1ccc2c(c1)Sc1ccccc1N2CC1CN2CCC1CC2 (stereo not shown) [Mequitazine]	5.0 nM	–	–
CN1[C@@H]2CC[C@H]1C[C@@H](OC(=O)C(CO)c1ccccc1)C2 (stereo partly shown) [Atropine]	–	–	OPC Cell Activity ([1]; Table 1): 5700 nM
CCCNCC(O)COc1ccccc1C(=O)CCc1ccccc1 (stereo not shown) [Propafenone]	–	Active	–
OCCOCCN1CCN(C2=Nc3ccccc3Sc3ccccc32)CC1 [Quetiapine]	–	Active	–
CN(C)CCCN1c2ccccc2Sc2ccc(Cl)cc21 [Chlorpromazine]	–	Active	–
O=C(O[C@H]1C[N+]2(CCCOc3ccccc3)CCC1CC2)C(O)(c1cccs1)c1cccs1 [Aclidinium bromide]	0.10 nM	–	–
CC(CN1c2ccccc2Sc2cccnc21)N(C)C (stereo not shown) [Isothipendyl]	74 nM	–	–
NC(=NCc1ccc(Cl)cc1)SCCCc1cnc[nH]1 [Clobenpropit]	–	–	OPC Cell Activity ([1]; Table 2): 125 nM
CN(C)CCOC(c1ccc(Cl)cc1)c1ccccn1 (stereo not shown) [Carbinoxamine]	740 nM	–	–
O=C(O[C@H]1CN2CCC1CC2)N1CCc2ccccc2[C@@H]1c1ccccc1 [Solifenacin]	25 nM	Active	–
CN(C)CCN(Cc1ccccc1)c1ccccn1 [Tripelennamine]	1,3000 nM	Active	–
Clc1ccc(Cn2c(CN3CCCC3)nc3ccccc32)cc1 [Clemizole]	–	–	OPC Cell Activity ([1]; Table 2, in words): Active
CN1[C@@H]2CC[C@H]1C[C@@H](OC(c1ccccc1)c1ccccc1)C2 [Benztropine]	–	–	OPC Cell Activity ([1]; Table 1): 170 to 350 nM
Cc1ccc(O)c([C@H](CCN(C(C)C)C(C)C)c2ccccc2)c1 [Tolterodine]	190 nM	–	–

Compound	In vitro M1 (Conc) (muscarinic M1 receptor)	OPC Cell Activity ([1]; Table 1, in words)	further results
C[N+]1(C)CCCCC1COC(=O)C(O)(c1ccccc1)c1ccccc1 (stereo not shown) [Bevonium]	–	Active	–
Cc1ccc(/C(=C\CN2CCCC2)c2ccccn2)cc1 [Triprolidine]	15000 nM	–	–
CC(CN(C)C)CN1c2ccccc2Sc2ccccc21 (stereo not shown) [Alimemazine]	398 nM	–	–
CN1CCCCC1CCN1c2ccccc2Sc2ccc([S+](C)[O-])cc21 (stereo not shown) [Mesoridazine]	10 nM	–	–
CN1[C@@H]2C[C@@H](OC(=O)[C@H](CO)c3ccccc3)C[C@H]1[C@@H]1O[C@@H]12 [Scopolamine]	–	–	OPC Cell Activity ([1]; Table 1): 5100 nM
O=C1CCCN1c1ccc(Oc2ccc3c(c2)CCN(C2CCC2)CC3)nc1 [GSK-239512]	–	–	OPC Cell Activity ([1]; Table 2): 120 to 160 nM
CCN1CCCC(OC(=O)C(c2ccccc2)c2ccccc2)C1 (stereo not shown) [Piperidolate]	–	Active	–
CC(C)[N+]1(C)[C@@H]2CC[C@H]1C[C@@H](OC(=O)C(CO)c1ccccc1)C2 (stereo partly shown) [Ipratropium]	1.31 nM	Active	–
CN1[C@@H]2CC[C@H]1C[C@@H](OC(=O)[C@H](CO)c1ccccc1)C2 [Hyoscyamine]	–	Active	–
CN1CCc2c(c3ccccc3n2Cc2ccccc2)C1 [Mebhydrolin]	180 nM	–	–
CC(C)[N+](C)(CCOC(=O)C1c2ccccc2Oc2ccccc21)C(C)C [Propantheline]	0.22 nM	–	OPC Cell Activity ([1]; Table 1): 1250 to 2950 nM
CCCOC(C(=O)OC1CCN(C)CC1)(c1ccccc1)c1ccccc1 [Propiverine]	619 nM	–	OPC Cell Activity ([1]; Table 1): 420 nM
OCCOCCN1CCN(C(c2ccccc2)c2ccc(Cl)cc2)CC1 (stereo not shown) [Hydroxyzine]	3,800 nM	Active	–
CCN(CC)CC#CCOC(=O)C(O)(c1ccccc1)C1CCCCC1 (stereo not shown) [Oxybutynin]	–	–	OPC Cell Activity ([1]; Table 1): 670 nM
Clc1ccc(CCCOCCCN2CCCCC2)cc1 [Pitolisant (tiprolisant), Pitolisant]	–	–	dose sparing activity with respect to the other agent ([2]; clemastine fumarate 0 to 5 μM combined with pitolisant hydrochloride 0 to 2 μM): dose sparing activity; OPC differentiation (% of MBP+ cells) ([2]; pitolisant hydrochloride alone, 0 to 2 μM): induce OPC differentiation; OPC Cell Activity ([1]; Table 2): 14 to 100 nM
CN(C)CCC[C@@]1(c2ccc(F)cc2)OCc2cc(C#N)ccc21 [Escitalopram]	–	Active	–
CN1CCC(OC(c2ccccc2)c2ccccc2)CC1 [Diphenylpyraline]	–	Active	–
C[N+]1(C)[C@@H]2C[C@@H](OC(=O)C(O)(c3cccs3)c3cccs3)C[C@H]1[C@@H]1O[C@@H]12 [Tiotropium bromide]	0.13 nM	Active	–
NC(=O)C(c1ccccc1)(c1ccccc1)[C@@H]1CCN(CCc2ccc3c(c2)CCO3)C1 [Darifenacin]	–	Active	–
C[C@@H]1CCCN1CCCOc1ccc(-c2ccc(=O)[nH]n2)cc1 [Irdabisant]	–	–	OPC Cell Activity ([1]; Table 2): 250 nM
c1cc2c(cc1-c1noc(CC3CCN(C4CCC4)CC3)n1)OCO2 [GSK-247246]	–	–	OPC Cell Activity ([1]; Table 2): 25 to 100 nM
Cc1noc(C)c1S(=O)(=O)N1CCN(c2ccc(N3CCCC(C)(C)C3)nn2)CC1 [VU6009833]	288 nM	–	–
CC(C1=C(CCN(C)C)Cc2ccccc21)c1ccccn1 (stereo not shown) [Dimetindene]	320 nM	–	–
OC(CCN1CCCCC1)(c1ccccc1)C1CCCCC1 (stereo not shown) [Trihexyphenidyl]	–	Active	–
Aminobenzotropine	–	Active	–
O=C(CCNS(=O)(=O)c1cccc2nsnc12)N1CCN(c2ccncc2)CC1 [VU0409774]	690 nM	–	–
